Data on 25 compounds can be found in patent US20070049593A1 (priority 2004, published 2007).

Each structure is given as a SMILES string. Where a name gives a salt, the structure may show the parent alone. Some results are limits rather than exact numbers.

The IC50 is the concentration at which inhibition is half-maximal. Low readings indicate greater potency in that assay, high ones weaker potency in that assay.

The test deals with T1, HCV polymerase (Hepatitis C virus genotype 1b, UniProt P26663).
T1 construct: a region encoding NS5B (J Virol 1991 March, 65(3), 1105-13, 544 amino acids after deletion of 47 amino acids on the C-terminal); 6xHis (C); made in house; host or cells: Escherichia coli
Briefly: biochemical. Also noted: species or system HCV BK strain. Summed up:
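His-tagged NS5B (BK strain, 47-aa C-terminal deletion, E. coli-expressed) at 0.5 μg/ml copied 5 μg/ml run-off RNA bearing the HCV 3′ UTR with 2 μM UTP plus [3H]UTP, 50 μM ATP/GTP, in pH 7.5 Tris with 5 mM MgCl2, 25 °C, 90 min. TCA-precipitated RNA was counted and IC50 calculated.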

T1 sequence (P26663 2420-2963): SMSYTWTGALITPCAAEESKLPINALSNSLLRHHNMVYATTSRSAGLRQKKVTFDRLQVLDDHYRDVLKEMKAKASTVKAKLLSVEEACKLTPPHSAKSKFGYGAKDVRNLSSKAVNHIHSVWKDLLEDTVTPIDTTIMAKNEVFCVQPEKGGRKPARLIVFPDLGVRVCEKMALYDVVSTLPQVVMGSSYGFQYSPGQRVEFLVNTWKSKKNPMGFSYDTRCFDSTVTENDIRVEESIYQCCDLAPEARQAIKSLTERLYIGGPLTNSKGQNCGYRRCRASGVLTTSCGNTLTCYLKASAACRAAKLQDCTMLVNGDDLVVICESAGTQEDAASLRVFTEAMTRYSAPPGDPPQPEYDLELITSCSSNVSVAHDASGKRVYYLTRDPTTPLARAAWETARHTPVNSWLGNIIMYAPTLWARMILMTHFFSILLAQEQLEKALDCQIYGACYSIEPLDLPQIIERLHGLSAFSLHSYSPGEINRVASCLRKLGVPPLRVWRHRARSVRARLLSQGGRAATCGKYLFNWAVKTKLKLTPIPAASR

`Cc1ccc2c(c1)N(CCN1CCSCC1)CCn1c-2c(C2CCCCC2)c2ccc(C(=O)O)cc21` [Example 1-561, 13-cyclohexyl-3-methyl-5-[2-(thiomorpholin-4-yl)ethyl]-6,7-dihydro-5H-benzo[5,6][1,4]diazepino[7,1-a]indole-10-carboxylic acid dihydrochloride] returned an IC50 below 100 nM.

For the compound `Cc1ccc2c(c1)N(C1CCNCC1)CCn1c-2c(C2CCCCC2)c2ccc(C(=O)O)cc21` [Example 1-562, 13-cyclohexyl-3-methyl-5-(piperidin-4-yl)-6,7-dihydro-5H-benzo[5,6][1,4]diazepino[7,1-a]indole-10-carboxylic acid dihydrochloride], the IC50 is below 100 nM.

In turn, `CC(=O)N1CCC(N2CCn3c(c(C4CCCCC4)c4ccc(C(=O)O)cc43)-c3ccc(C)cc32)CC1` [Example 1-563, 5-(1-acetylpiperidin-4-yl)-13-cyclohexyl-3-methyl-6,7-dihydro-5H-benzo[5,6][1,4]diazepino[7,1-a]indole-10-carboxylic acid] showed an IC50 below 100 nM.

Compound `Cc1ccc2c(c1)N(C1CCN(C)CC1)CCn1c-2c(C2CCCCC2)c2ccc(C(=O)O)cc21` [Example 1-564, 13-cyclohexyl-3-methyl-5-(1-methylpiperidin-4-yl)-6,7-dihydro-5H-benzo[5,6][1,4]diazepino[7,1-a]indole-10-carboxylic acid dihydrochloride] had an IC50 below 100 nM.

`CN(C)CCN1CCn2c(c(C3CCCCC3)c3ccc(C(=O)O)cc32)-c2ccc(OCc3ccncc3)cc21` [Example 1-565, 13-cyclohexyl-5-(2-dimethylaminoethyl)-3-(pyridin-4-ylmethoxy)-6,7-dihydro-5H-benzo[5,6][1,4]diazepino[7,1-a]indole-10-carboxylic acid trihydrochloride] gave an IC50 below 100 nM.

With `Cc1ccc2c(c1)N(CCN1CCC[C@@H](CCN3CCCC3=O)C1)CCn1c-2c(C2CCCCC2)c2ccc(C(=O)O)cc21` [Example 1-566, 13-cyclohexyl-3-methyl-5-(2-{(S)-3-[2-(2-oxopyrrolidin-1-yl)ethyl]piperidin-1-yl]ethyl}-6,7-dihydro-5H-benzo[5,6][1,4]diazepino[7,1-a]indole-10-carboxylic acid dihydrochloride], the IC50 is below 100 nM.

In turn, `Cc1ccc2c(c1)N(C)C(C)Cn1c-2c(C2CCCCC2)c2ccc(C(=O)O)cc21` (stereo not shown) [Example 1-567, 13-cyclohexyl-3,5,6-trimethyl-6,7-dihydro-5H-benzo[5,6][1,4]diazepino[7,1-a]indole-10-carboxylic acid] came in with a half-inhibitory concentration (IC50) below 100 nM.

On to `COc1ccc2c(c1)N(CCN1CCSCC1)CCn1c-2c(C2CCCCC2)c2ccc(C(=O)O)cc21` [Example 1-568, 13-cyclohexyl-3-methoxy-5-[2-(thiomorpholin-4-yl)ethyl]-6,7-dihydro-5H-benzo[5,6][1,4]diazepino[7,1-a]indole-10-carboxylic acid dihydrochloride], for which the IC50 was below 100 nM.

The compound `Cc1ccc2c(c1)N(C)CCn1c-2c(C2CCCCC2)c2ccc(C(=O)O)c(C)c21` [Example 1-569, 13-cyclohexyl-3,5,9-trimethyl-6,7-dihydro-5H-benzo[5,6][1,4]diazepino[7,1-a]indole-10-carboxylic acid] came in with a concentration for half-maximal inhibition (IC50) of 100 to 1000 nM.

`COCC[C@@H]1CCCN(C(=O)CN2CCn3c(c(C4CCCCC4)c4ccc(C(=O)O)cc43)-c3ccc(C)cc32)C1` [Example 1-570, 13-cyclohexyl-5-{2-[(S)-3-(2-methoxyethyl)piperidin-1-yl]-2-oxoethyl}-3-methyl-6,7-dihydro-5H-benzo[5,6][1,4]diazepino[7,1-a]indole-10-carboxylic acid]: the IC50 was below 100 nM.

For `Cc1ccc2c(c1)N(CC(=O)N1CCN(S(C)(=O)=O)CC1)CCn1c-2c(C2CCCCC2)c2ccc(C(=O)O)cc21` [Example 1-571, 13-cyclohexyl-5-[2-(4-methanesulfonylpiperazin-1-yl)-2-oxoethyl]-3-methyl-6,7-dihydro-5H-benzo[5,6][1,4]diazepino[7,1-a]indole-10-carboxylic acid], the IC50 was below 100 nM.

For the compound `COC1CCN(C(=O)CN2CCn3c(c(C4CCCCC4)c4ccc(C(=O)O)cc43)-c3ccc(C)cc32)CC1` [Example 1-572, 13-cyclohexyl-5-[2-(4-methoxypiperidin-1-yl)-2-oxoethyl]-3-methyl-6,7-dihydro-5H-benzo[5,6][1,4]diazepino[7,1-a]indole-10-carboxylic acid], the IC50 was below 100 nM.

Consider `CNC(=O)c1ccc2c(C3CCCCC3)c3n(c2c1)CCN(CC(=O)N1CCN(S(C)(=O)=O)CC1)c1cc(C)ccc1-3` [Example 1-573, N-methyl-13-cyclohexyl-5-[2-(4-methanesulfonylpiperazin-1-yl)-2-oxoethyl]-3-methyl-6,7-dihydro-5H-benzo[5,6][1,4]diazepino[7,1-a]indole-10-carboxamide], for which the IC50 is below 100 nM.

`Cc1ccc2c(c1)N(C)CCn1c-2c(C2CCCCC2)c2ccc(C(=O)O)cc21` [Example 1-574, 13-cyclohexyl-3,5-dimethyl-6,7-dihydro-5H-benzo[5,6][1,4]diazepino[7,1-a]indole-10-carboxylic acid] gave an IC50 below 100 nM.

The compound `CN(C)CCN1CCn2c(c(C3CCCCC3)c3ccc(C(=O)O)cc32)-c2ccc(OCCN3CCOC3=O)cc21` [Example 1-575, 13-cyclohexyl-5-(2-dimethylaminoethyl)-3-[2-(2-oxooxazolidin-3-yl)ethoxy]-6,7-dihydro-5H-benzo[5,6][1,4]diazepino[7,1-a]indole-10-carboxylic acid dihydrochloride] registered an IC50 below 100 nM.

As for `CN(C)CCN1CCn2c(c(C3CCCCC3)c3ccc(C(=O)O)cc32)-c2ccc(OCCNCCO)cc21` [Example 1-576, 13-cyclohexyl-5-(2-dimethylaminoethyl)-3-[2-(2-hydroxyethylamino)ethoxy]-6,7-dihydro-5H-benzo[5,6][1,4]diazepino[7,1-a]indole-10-carboxylic acid trihydrochloride], the IC50 is below 100 nM.

For the compound `COc1cccc(COc2ccc3c(c2)N(CCN(C)C)CCn2c-3c(C3CCCCC3)c3ccc(C(=O)O)cc32)c1` [Example 1-577, 13-cyclohexyl-5-(2-dimethylaminoethyl)-3-(3-methoxybenzyloxy)-6,7-dihydro-5H-benzo[5,6][1,4]diazepino[7,1-a]indole-10-carboxylic acid dihydrochloride], the concentration for half-maximal inhibition (IC50) is below 100 nM.

`CN(C)CCN1CCn2c(c(C3CCCCC3)c3ccc(C(=O)O)cc32)-c2ccc(OCc3cccc(N)c3)cc21` [Example 1-578, 3-(3-aminobenzyloxy)-13-cyclohexyl-5-(2-dimethylaminoethyl)-6,7-dihydro-5H-benzo[5,6][1,4]diazepino[7,1-a]indole-10-carboxylic acid trihydrochloride] yielded an IC50 below 100 nM.

As to `CN(C)CCN1CCn2c(c(C3CCCCC3)c3ccc(C(=O)O)cc32)-c2ccc(OCc3cccc([N+](=O)[O-])c3)cc21` [Example 1-579, 13-cyclohexyl-5-(2-dimethylaminoethyl)-3-(3-nitrobenzyloxy)-6,7-dihydro-5H-benzo[5,6][1,4]diazepino[7,1-a]indole-10-carboxylic acid dihydrochloride], the IC50 is below 100 nM.

Consider `COC(=O)N1CCC(CCN2CCn3c(c(C4CCCCC4)c4ccc(C(=O)O)cc43)-c3ccc(Cl)cc32)CC1` [Example 1-580, 3-chloro-13-cyclohexyl-5-[2-(1-methoxycarbonylpiperidin-4-yl)ethyl]-6,7-dihydro-5H-benzo[5,6][1,4]diazepino[7,1-a]indole-10-carboxylic acid], for which the IC50 is below 100 nM.

In turn, `Cc1ccc2c(c1)N(CCc1ccc(F)cc1)CCn1c-2c(C2CCCCC2)c2ccc(C(=O)O)cc21` [Example 1-581, 13-cyclohexyl-5-[2-(4-fluorophenyl)ethyl]-3-methyl-6,7-dihydro-5H-benzo[5,6][1,4]diazepino[7,1-a]indole-10-carboxylic acid] registered an IC50 below 100 nM.

As for `CC(=O)Nc1cccc(COc2ccc3c(c2)N(CCN(C)C)CCn2c-3c(C3CCCCC3)c3ccc(C(=O)O)cc32)c1` [Example 1-582, 3-(3-acetylaminobenzyloxy)-13-cyclohexyl-5-(2-dimethylaminoethyl)-6,7-dihydro-5H-benzo[5,6][1,4]diazepino[7,1-a]indole-10-carboxylic acid dihydrochloride], the IC50 is below 100 nM.

The compound `COC(=O)c1ccc2c(C3CCCCC3)c3n(c2c1)CCN(CCN(C)C)c1cc(OCc2cccc(C(=O)O)c2)ccc1-3` [Example 1-583, methyl 3-(3-carboxybenzyloxy)-13-cyclohexyl-5-(2-dimethylaminoethyl)-6,7-dihydro-5H-benzo[5,6][1,4]diazepino[7,1-a]indole-10-carboxylate dihydrochloride] returned an IC50 of 100 to 1000 nM.

`CN(C)CCN1CCn2c(c(C3CCCCC3)c3ccc(C(=O)O)cc32)-c2ccc(OCCCN3CCCCC3)cc21` [Example 1-584, 13-cyclohexyl-5-(2-dimethylaminoethyl)-3-[3-(piperidin-1-yl)propoxy]-6,7-dihydro-5H-benzo[5,6][1,4]diazepino[7,1-a]indole-10-carboxylic acid trihydrochloride] gave an IC50 below 100 nM.

Turning to `CN(C)CCN1CCn2c(c(C3CCCCC3)c3ccc(C(=O)O)cc32)-c2ccc(OCc3cccc(N4CCCC4=O)c3)cc21` [Example 1-585, 13-cyclohexyl-5-(2-dimethylaminoethyl)-3-[3-(2-oxopyrrolidin-1-yl)benzyloxy]-6,7-dihydro-5H-benzo[5,6][1,4]diazepino[7,1-a]indole-10-carboxylic acid trihydrochloride], the IC50 was below 100 nM.
